This is an account of results in PMC8869507, “Gel-Forming of Self-Assembling Peptides Functionalized with Food Bioactive Motifs Modulate DPP-IV and ACE Inhibitory Activity in Human Intestinal Caco-2 Cells” (Biomedicines, 2022).

For orientation: IC50 means the concentration that gives 50% inhibition.

Read-outs that look alike come from different tables or passages of the source.

Data set [1] relates to ACE. The arrangement: method as in BIOPEP. The conditions noted are these: from casein and soybean hydrolysates; ref BIOPEP; cited from earlier work.
Data set [2] can be described thus: Atomic force microscopy (AFM) of peptide nanostructures. The conditions noted are these: AFM tapping mode, 0.01% w/v in distilled water, sonicated 30 min, on mica. The format is physicochemical. The protocol:
AFM measurements were captured in tapping mode using a Tosca system (Anton Paar, Graz, Austria) using single-beam silicon cantilever probes. Peptides were dissolved in distilled water at a final concentration of 0.01% w/v and sonicated for 30 min, the same day as imaging. Then, 5 μL of peptide solution were deposited for 5 min on freshly cleaved mica, and distilled water was used to remove peptides loosely bound to the mica.

Data set [3] relates to ACE. The data set is described as follows: In vitro evaluation of ACE inhibition activity (HHL substrate). The format is biochemical, porcine kidney. The conditions noted are these: 1 mg/mL; HHL 2.5 mM, pH 8.3, preincubation 15 min 37 °C, incubation 60 min 37 °C, HPLC of hippuric acid. As for the experimental part:
(§1) Peptide IAVP (1 mg/mL) was tested as previously described evaluating its DPP-IV and ACE inhibitory activity, respectively. For the evaluation of in vitro ACE inhibitory activity, a biochemical assay was used (further details are reported in supplementary materials).
(§2) Supplementary Materials for Gel‐forming of self‐assembling peptides functionalized with food bioactive motifs modulate DPP‐IV and ACE inhibitory ac‐ tivity in human intestinal Caco‐2 cells
(§3) Raffaele Pugliese1,*, Martina Bartolomei2, Carlotta Bollati2, Giovanna Boschin2, Anna Arnoldi2, and Carmen […]
(§4) In vitro evaluation of ACE inhibition activity. […]
(§5) The evaluation of the inhibition of ACE activity was based on the comparison between the concentrations of HA in the presence or absence of the inhibitor (Inhibitor Blank). The phenomenon of autolysis of HHL to give HA was evaluated by a reaction blank, i.e. a sample with the higher inhibitor concentration but without the enzyme. The percentage of ACE inhibition was calculated considering the area of the HA peak with the following formula: […] where AIB is the area of HA in the Inhibitor Blank (IB) sample (i.e., sample with enzyme but without inhibitor), AN is the area of HA in the samples containing different inhibitor amounts, and ARB is the area of HA in the Reaction Blank (RB) sample (i.e., sample without enzyme and with inhibitor at the highest concentration). […]

Data set [4] relates to DPP-IV. Nature of the data set: In vitro DPP-IV activity assay. The format is biochemical. The following applies: IAVP up to 1 mg/mL (1, 10, 100, 500 and 1000 μg/mL), Tris-HCl pH 8.0, H-Gly-Pro-AMC, 37°, 30 min, fluorescence 350/465 nm, triplicate. As for the experimental part: as §1, §2, §3, §4, §5
The test system of the next data set is proteases. The conditions noted are these: cited from earlier work; for bioavailability / resistance towards proteases: non-covalent encapsulation in RADA16 hydrogel vs plain solutions, previously reported by the authors, reference not given; for stability: non-covalently entrapped into RADA16, ref [10]. The text has this:
(§6) However, such food-derived peptides show low stability, bioavailability (due to their rapid degradation by active peptidases located on the intestinal microvilli), and a poor propensity to form functional biomaterials (i.e., hydrogels), thus precluding their practical applications.

The next data set relates to DPP-IV and ACE. The following applies: cited from earlier work; for concentration encapsulated needed for positive effect on DPP-IV and ACE: encapsulated in RADA16 hydrogel, previously reported by the authors, reference not given; for capability of inhibiting DPP-IV and ACE: non-covalently entrapped into RADA16, ref [10].
Source text: as §6

Data set [5] relates to DPP-IV. The following applies: cited from earlier work; for DPP-IV activity in situ: human Caco-2 cells; for DPP-IV activity in situ / DPP-IV activity in vitro: ref [1]; for IC50: plain solutions, ref [4]. The text has this: IAVPTGVA and LTFPGSAED (dubbed, respectively, Soy1 and Lup1) are two peptides derived from the hydrolysis of soybean glycinin and lupin β-conglutin, respectively. […] This difference was explained ...

For another data set, the system named is Caco-2 cells. The following applies: cited from earlier work.
The subject of data set [6] is ACE. The conditions noted are these: ACE activity expressed by Caco-2 cells, dose–response; no reference printed in the sentence (sentence before: ref [28]); cited from earlier work. The text has this: This difference was explained ...
For another data set, the system named is HMGCoAR. The following applies: in vitro; ref [1],[2],[3],[4]; cited from earlier work. The text has this: (§7) IAVPTGVA and LTFPGSAED (dubbed, respectively, Soy1 and Lup1) are two peptides derived from the hydrolysis of soybean glycinin and lupin β-conglutin, respectively.
In the next data set the test system is HepG2 cells. The following applies: human HepG2 cells, ref [3],[5], cited from earlier work; for LDL uptake: LDL from the extracellular environment; for LDLR protein levels: through HMGCoAR inhibition.
Source text: as §7

The test system of data set [7] is DPP-IV. The arrangement: method as in PMID 32223157. The following applies: metabolite of Lup1; ref [28]; cited from earlier work.
Data set [8] concerns ACE. Also on record: method as in PMID 32223157. The following applies: metabolite of Lup1; ref [28]; cited from earlier work.
For data set [9] the following is noted: non-covalently entrapped in RADA16; previously reported by the authors, reference not given; cited from earlier work.
[10] abbreviates: DPP-IV expressed by Caco-2 cells, read-out: IC50 cellular DPP-IV.
The mark [11] stands for this setting: purified enzymes, read-out: IC50 in vitro DPP-IV.

AVP: the “known ACE inhibitor peptide” value in the data set with ACE [1] is given as “known ACE inhibitor peptides”.

For the substance “Ac-IAVPTGVAGGGRADARADARADARADA-NH2 [fAP-Soy1, RADA16 functionalized at the N-terminus with Soy1 through a three-glycines spacer]”, the nanostructure morphology entry in data set [2] is recorded as “short single nanofibers”.

Regarding “Ac-LTFPGSAEDGGGRADARADARADARADA-NH2 [fAP-Lup1, RADA16 functionalized at the N-terminus with Lup1 through a three-glycines spacer]”, the nanostructure morphology result in data set [2] is “did not form nanofibers, but instead led to the formation of sparse round aggregates”.

As to “IAVP [small peptide from degradation of Soy1]”, the “reduction of in vitro ACE activity” value with ACE [3] is 20.1 ± 0.5%. The DPP-IV inhibitory activity entry with DPP-IV [4] was “totally ineffective on DPP-IV”.

On to “IAVPTGVA [Soy1, peptide derived from the hydrolysis of soybean glycinin]”, for which, in the data set with proteases, the bioavailability entry is given as “higher bioavailability”, the resistance towards proteases result is given as “higher resistance towards the proteases” and the stability result is “significantly improved”. In addition, in the data set with DPP-IV and ACE, the “concentration encapsulated needed for positive effect on DPP-IV and ACE” value is reported as “more than 100 μM”; the “capability of inhibiting DPP-IV and ACE” value is “significantly improved as well as their capability of inhibiting DPP-IV and ACE”. In the data set on DPP-IV [5], the “DPP-IV activity in situ” value is “drop the in vitro and in situ human Caco-2 cells DPP-IV activity”; the “DPP-IV activity in vitro” value was “drop the in vitro and in situ human Caco-2 cells DPP-IV activity”. Also, the IC50 with DPP-IV [5] (setting [10]) was 223 µM. Also, in the data set with DPP-IV [5] (setting [11]), the IC50 was 106 µM. Further, in the data set with Caco-2 cells (Caco-2 trans-epithelial transport, ref [28],[29]), the “transport across the intestinal barrier” value is “able to across the intestinal barrier”. The “break-down fragments by intestinal peptidases” value in the data set on Caco-2 cells (apical side of Caco-2 cells, trans-epithelial transport, ref [29]) is “metabolized in three breakdown fragments (AVPTGVA, IAVP, and IAV)”. Further, the “susceptibility to metabolic activity of peptidase” value with Caco-2 cells (apical side of human intestinal Caco-2 cells, compared with Lup1, ref [28]) is “more suitable for the metabolic activity of peptidase”. In addition, the IC50 in the data set on ACE [6] was 14.7 µM. The HMGCoAR inhibition entry with HMGCoAR was “act as in vitro HMGCoAR and DPP-IV inhibitors”. In addition, in the data set on HepG2 cells, the LDL uptake result is on record as “improved the ability of hepatic cells to uptake LDL” and the LDLR protein levels entry is “upregulation of the LDLR protein levels”.

As for LTFPG [peptide cleaved from Lup1], the DPP-IV inhibitory activity entry in the data set on DPP-IV [7] is given as “losing that against DPP-IV”. Moreover, the ACE inhibitory activity entry in the data set on ACE [8] is on record as “maintains its ACE inhibitory activity”.

Regarding “LTFPGSAED [Lup1, peptide derived from the hydrolysis of lupin β-conglutin]”, in the data set with proteases, the bioavailability result is recorded as “higher bioavailability”, the resistance towards proteases entry was “higher resistance towards the proteases” and the stability entry is listed as “significantly improved”. Moreover, in the data set with DPP-IV and ACE, the “concentration encapsulated needed for positive effect on DPP-IV and ACE” value was “more than 100 μM”; the “capability of inhibiting DPP-IV and ACE” value was “significantly improved as well as their capability of inhibiting DPP-IV and ACE”. Moreover, in the data set on DPP-IV [5], the “DPP-IV activity in situ” value was “drop the in vitro and in situ human Caco-2 cells DPP-IV activity”; the “DPP-IV activity in vitro” value was “drop the in vitro and in situ human Caco-2 cells DPP-IV activity”. In the data set on DPP-IV [5] (setting [10]), the IC50 was 208 µM. The IC50 in the data set with DPP-IV [5] (setting [11]) is 228 µM. Further, the “transport across the intestinal barrier” value in the data set with Caco-2 cells is “able to across the intestinal barrier”. Besides, the 50% inhibitory concentration (IC50) in the data set with ACE [6] is 13.7 µM. Also, the “release from RADA16 hydrogel” value in data set [9] is on record as “regularly delivered by the RADA16 hydrogel during the 360 min of controlled release tests”. In addition, the HMGCoAR inhibition result in the data set on HMGCoAR is “act as in vitro HMGCoAR and DPP-IV inhibitors”. Further, in the data set with HepG2 cells, the LDL uptake entry is recorded as “improved the ability of hepatic cells to uptake LDL” and the LDLR protein levels result was “upregulation of the LDLR protein levels”.

Turning to RADA16, the nanostructure morphology result in [2] is reported as “self-assembles into long nanofibers”.
